Our source for the EC50 and Ratio values is ChEMBL document CHEMBL1148480, “Structure-activity studies of orexin a and orexin B at the human orexin 1 and orexin 2 receptors led to orexin 2 receptor selective and orexin 1 receptor preferring ligands” (J Med Chem, 2004).

Residues, ends and D or L forms follow the SMILES beside them. Some results are limits rather than exact numbers.

One experiment concerns the target T1, Orexin receptor type 2 (Homo sapiens, UniProt O43614).
T1 sequence (O43614 whole entry): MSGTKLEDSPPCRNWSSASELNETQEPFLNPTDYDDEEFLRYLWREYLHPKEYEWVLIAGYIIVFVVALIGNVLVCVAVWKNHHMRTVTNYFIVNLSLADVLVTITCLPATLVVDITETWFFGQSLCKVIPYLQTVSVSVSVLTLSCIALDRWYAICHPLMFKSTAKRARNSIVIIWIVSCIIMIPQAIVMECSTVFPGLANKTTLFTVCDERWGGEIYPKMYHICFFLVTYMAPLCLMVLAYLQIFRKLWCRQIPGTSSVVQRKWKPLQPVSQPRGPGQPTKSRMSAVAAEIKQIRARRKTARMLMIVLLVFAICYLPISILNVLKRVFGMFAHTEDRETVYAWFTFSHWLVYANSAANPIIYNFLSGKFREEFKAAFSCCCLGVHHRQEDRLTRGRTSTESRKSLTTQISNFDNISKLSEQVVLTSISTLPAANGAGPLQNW
Put plainly: Effective agonist concentration to the human Orexin receptor type 2 was determined using the Xlfit program. The format is functional.

The nature of experiment [1]: Ratio of orexin-1 receptor to orexin-2 receptor in human.

Molecule `CC[C@H](C)[C@H](NC(=O)CNC(=O)[C@H](C)NC(=O)[C@H](C)NC(=O)[C@H](Cc1c[nH]cn1)NC(=O)[C@H](CC(N)=O)NC(=O)CNC(=O)[C@H](CO)NC(=O)[C@H](C)NC(=O)[C@H](CCC(N)=O)NC(=O)[C@H](CC(C)C)NC(=O)[C@H](CC(C)C)NC(=O)[C@H](CCCN=C(N)N)NC(=O)[C@H](CCC(N)=O)NC(=O)[C@H](CC(C)C)NC(=O)[C@H](CCCN=C(N)N)NC(=O)[C@H](C)NC(=O)[C@H](CCC(N)=O)NC(=O)[C@H](CC(C)C)NC(=O)CN)C(=O)N[C@@H](CC(C)C)C(=O)N[C@H](C(=O)N[C@@H](CCSC)C(=O)O)[C@@H](C)O` (H-GLQARLQRLLQASGNHAAGILTM-OH) displayed an EC50 on Orexin receptor type 2 of 210 nM. Moreover, in experiment [1], the Ratio was 11.

On to `CC[C@H](C)[C@H](NC(=O)CNC(=O)[C@H](C)NC(=O)[C@H](C)NC(=O)[C@H](Cc1c[nH]cn1)NC(=O)[C@H](CC(N)=O)NC(=O)CNC(=O)[C@H](C)NC(=O)CNC(=O)[C@H](Cc1c[nH]cn1)NC(=O)[C@H](CC(C)C)NC(=O)[C@H](CC(C)C)NC(=O)[C@H](CCC(=O)O)NC(=O)[C@H](Cc1ccc(O)cc1)NC(=O)[C@H](CC(C)C)NC(=O)[C@H](CCCN=C(N)N)NC(=O)[C@H](CS)NC(=O)[C@H](CO)NC(=O)[C@H](CS)NC(=O)[C@@H](NC(=O)[C@H](CCCCN)NC(=O)[C@H](CCC(N)=O)NC(=O)[C@H](CCCN=C(N)N)NC(=O)[C@H](CS)NC(=O)[C@H](CS)NC(=O)[C@H](CC(=O)O)NC(=O)[C@@H]1CCCN1)[C@@H](C)O)C(=O)N[C@@H](CC(C)C)C(=O)N[C@H](C(=O)N[C@@H](CC(C)C)C(=O)O)[C@@H](C)O` (H-PDCCRQKTCSCRLYELLHGAGNHAAGILTL-OH), for which the concentration for a half-maximal effect (EC50) on Orexin receptor type 2 is 400 nM. Moreover, in experiment [1], the Ratio is 1.6.

For the molecule `CC[C@H](C)[C@H](NC(=O)CNC(=O)[C@H](C)NC(=O)[C@H](C)NC(=O)[C@H](Cc1c[nH]cn1)NC(=O)[C@H](CC(N)=O)NC(=O)CNC(=O)[C@H](CO)NC(=O)[C@H](C)NC(=O)[C@H](CCC(N)=O)NC(=O)[C@H](CC(C)C)NC(=O)[C@H](CC(C)C)NC(=O)[C@H](CCCN=C(N)N)NC(=O)[C@H](CCC(N)=O)NC(=O)[C@H](CC(C)C)NC(=O)[C@H](CCCN=C(N)N)NC(=O)CNC(=O)[C@H](CCC(N)=O)NC(=O)[C@H](C)NC(=O)CN)C(=O)N[C@@H](CC(C)C)C(=O)N[C@H](C(=O)N[C@@H](CCSC)C(=O)O)[C@@H](C)O` (H-GAQGRLQRLLQASGNHAAGILTM-OH), at Orexin receptor type 2, the EC50 was found to be 830 nM. For the same molecule, the Ratio in experiment [1] came to 8.9.

`CC[C@H](C)[C@H](NC(=O)CNC(=O)[C@H](C)NC(=O)[C@H](C)NC(=O)[C@H](Cc1c[nH]cn1)NC(=O)[C@H](CC(N)=O)NC(=O)CNC(=O)[C@H](C)NC(=O)CNC(=O)[C@H](Cc1c[nH]cn1)NC(=O)[C@H](CC(C)C)NC(=O)[C@H](CC(C)C)NC(=O)[C@H](CCC(=O)O)NC(=O)[C@H](Cc1ccc(O)cc1)NC(=O)[C@H](CC(C)C)NC(=O)[C@H](CCCN=C(N)N)NC(=O)[C@H](CS)NC(=O)[C@H](CO)NC(=O)[C@H](CS)NC(=O)[C@@H](NC(=O)[C@H](CCCCN)NC(=O)[C@H](CCC(N)=O)NC(=O)[C@H](CCCN=C(N)N)NC(=O)[C@H](CS)NC(=O)[C@@H](N)CS)[C@@H](C)O)C(=O)N[C@@H](CC(C)C)C(=O)N[C@H](C(=O)N[C@@H](CC(C)C)C(=O)O)[C@@H](C)O` (H-CCRQKTCSCRLYELLHGAGNHAAGILTL-OH) showed an EC50 on Orexin receptor type 2 of 790 nM. Besides, the Ratio in experiment [1] was 1.

`CC[C@H](C)[C@H](NC(=O)CNC(=O)[C@H](C)NC(=O)[C@H](C)NC(=O)[C@H](Cc1c[nH]cn1)NC(=O)[C@H](CC(N)=O)NC(=O)CNC(=O)[C@H](CO)NC(=O)[C@H](C)NC(=O)[C@H](CCC(N)=O)NC(=O)[C@H](CC(C)C)NC(=O)[C@H](CC(C)C)NC(=O)[C@H](CCCN=C(N)N)NC(=O)[C@H](CCC(N)=O)NC(=O)[C@H](CC(C)C)NC(=O)[C@H](CCCN=C(N)N)NC(=O)[C@@H]1CCCN1C(=O)[C@H](CCC(N)=O)NC(=O)[C@H](CC(C)C)NC(=O)CN)C(=O)N[C@@H](CC(C)C)C(=O)N[C@H](C(=O)N[C@@H](CCSC)C(=O)O)[C@@H](C)O` (H-GLQPRLQRLLQASGNHAAGILTM-OH): the response on Orexin receptor type 2 was half-maximal at 190 nM (EC50). In addition, the Ratio in experiment [1] turned out to be 23.5.

`CC[C@H](C)[C@H](NC(=O)CNC(=O)[C@H](C)NC(=O)[C@H](C)NC(=O)[C@H](Cc1c[nH]cn1)NC(=O)[C@H](CC(N)=O)NC(=O)CNC(=O)[C@H](CO)NC(=O)[C@H](C)NC(=O)[C@H](C)NC(=O)[C@H](CC(C)C)NC(=O)[C@H](CC(C)C)NC(=O)[C@H](CCCN=C(N)N)NC(=O)[C@H](CCC(N)=O)NC(=O)[C@H](CC(C)C)NC(=O)[C@H](CCCN=C(N)N)NC(=O)CNC(=O)[C@H](CCC(N)=O)NC(=O)[C@H](CC(C)C)NC(=O)CN)C(=O)N[C@@H](CC(C)C)C(=O)N[C@H](C(=O)N[C@@H](CCSC)C(=O)O)[C@@H](C)O` (H-GLQGRLQRLLAASGNHAAGILTM-OH): in experiment [1], the Ratio came to 8.6.

Regarding `CC[C@H](C)[C@H](NC(=O)CNC(=O)[C@H](C)NC(=O)[C@H](C)NC(=O)[C@H](Cc1c[nH]cn1)NC(=O)[C@H](CC(N)=O)NC(=O)CNC(=O)[C@H](CO)NC(=O)[C@H](C)NC(=O)[C@H](CCC(N)=O)NC(=O)[C@H](CC(C)C)NC(=O)[C@H](CC(C)C)NC(=O)[C@H](CCCN=C(N)N)NC(=O)[C@H](CCC(N)=O)NC(=O)[C@H](CC(C)C)NC(=O)[C@@H](N)CCCN=C(N)N)C(=O)N[C@@H](CC(C)C)C(=O)N[C@H](C(=O)N[C@@H](CCSC)C(=O)O)[C@@H](C)O` (H-RLQRLLQASGNHAAGILTM-OH), the Ratio in experiment [1] is over 1750.

As for `CC[C@H](C)[C@H](NC(=O)CNC(=O)[C@H](C)NC(=O)[C@H](C)NC(=O)[C@H](Cc1c[nH]cn1)NC(=O)[C@H](CC(N)=O)NC(=O)CNC(=O)[C@H](CO)NC(=O)[C@H](C)NC(=O)[C@H](CCC(N)=O)NC(=O)[C@H](C)NC(=O)[C@H](CC(C)C)NC(=O)[C@H](CCCN=C(N)N)NC(=O)[C@H](CCC(N)=O)NC(=O)[C@H](CC(C)C)NC(=O)[C@H](CCCN=C(N)N)NC(=O)CNC(=O)[C@H](CCC(N)=O)NC(=O)[C@H](CC(C)C)NC(=O)CN)C(=O)N[C@@H](CC(C)C)C(=O)N[C@H](C(=O)N[C@@H](CCSC)C(=O)O)[C@@H](C)O` (H-GLQGRLQRLAQASGNHAAGILTM-OH), the Ratio in experiment [1] is over 430.

`CC[C@H](C)[C@H](NC(=O)CNC(=O)[C@H](C)NC(=O)[C@H](C)NC(=O)[C@H](Cc1c[nH]cn1)NC(=O)[C@H](CC(N)=O)NC(=O)CNC(=O)[C@H](CO)NC(=O)[C@H](C)NC(=O)[C@H](CCC(N)=O)NC(=O)[C@H](CC(C)C)NC(=O)[C@H](CC(C)C)NC(=O)[C@H](CCCN=C(N)N)NC(=O)[C@H](CCC(N)=O)NC(=O)[C@H](CC(C)C)NC(=O)[C@H](CCCN=C(N)N)NC(=O)CNC(=O)[C@@H]1CCCN1C(=O)[C@H](CC(C)C)NC(=O)CN)C(=O)N[C@@H](CC(C)C)C(=O)N[C@H](C(=O)N[C@@H](CCSC)C(=O)O)[C@@H](C)O` (H-GLPGRLQRLLQASGNHAAGILTM-OH): the midpoint of the response at Orexin receptor type 2, the EC50, lay at 160 nM. The Ratio in experiment [1] came out at 7.5.
